{"source": "paper PMC4177084", "about": "(Journal of Thyroid Research, 2014)", "key": {"[1]": {"tested_on": "8505C cells", "experiment": "Antiproliferation assay (WST-8)", "type": "cell-based", "settings": "Homo sapiens, 72 h; 8505C (ATC), antiproliferative, 3 days"}, "[2]": {"molecular_target": "T1, CHK1 (Homo sapiens, UniProt O14757)", "T1 construct": "purchased Carna Biosciences, Inc. (Kobe, Japan)", "experiment": "Cell free kinase inhibition assay", "type": "biochemical"}, "[3]": {"tested_on": "VEGFR, FGFR, KIT, PDGFR", "experiment": "Cell free kinase inhibition assay, summary for RTKs", "type": "biochemical", "settings": "PDGFR (Supplementary Table S1)", "protocol": "[…]. Briefly, each test compound was mixed with enzyme, substrate, ATP, and Mg under appropriate buffer conditions for the ELISA or MSA. […] IC50 values (the half maximal inhibitory concentration) were calculated from concentrations versus % inhibition curves."}, "[4]": {"molecular_target": "T2, FGFR1 (Homo sapiens, UniProt P11362)", "T2 construct": "purchased Carna Biosciences, Inc. (Kobe, Japan)", "experiment": "Cell free kinase inhibition assay", "type": "biochemical"}, "[5]": {"molecular_target": "T3, GSK3β (Homo sapiens, UniProt P49841)", "T3 construct": "purchased Carna Biosciences, Inc. (Kobe, Japan)", "experiment": "Cell free kinase inhibition assay", "type": "biochemical"}, "[6]": {"molecular_target": "T4, BRK (Homo sapiens, UniProt Q13882)", "T4 construct": "purchased Carna Biosciences, Inc. (Kobe, Japan)", "experiment": "Cell free kinase inhibition assay", "type": "biochemical"}, "[7]": {"molecular_target": "T5, PRKX (Homo sapiens, UniProt P51817)", "T5 construct": "purchased Carna Biosciences, Inc. (Kobe, Japan)", "experiment": "Cell free kinase inhibition assay", "type": "biochemical"}, "[8]": {"tested_on": "FTC-133 cells", "experiment": "Antiproliferation assay (WST-8)", "type": "cell-based, human", "settings": "Homo sapiens, 72 h; FTC-133 (DTC), antiproliferative, 3 days"}, "[9]": {"molecular_target": "T6, FGFR3(K650E) (Homo sapiens, UniProt P22607, K650E)", "T6 construct": "purchased Carna Biosciences, Inc. (Kobe, Japan)", "T6 sequence (P22607 23-806 K650E)": "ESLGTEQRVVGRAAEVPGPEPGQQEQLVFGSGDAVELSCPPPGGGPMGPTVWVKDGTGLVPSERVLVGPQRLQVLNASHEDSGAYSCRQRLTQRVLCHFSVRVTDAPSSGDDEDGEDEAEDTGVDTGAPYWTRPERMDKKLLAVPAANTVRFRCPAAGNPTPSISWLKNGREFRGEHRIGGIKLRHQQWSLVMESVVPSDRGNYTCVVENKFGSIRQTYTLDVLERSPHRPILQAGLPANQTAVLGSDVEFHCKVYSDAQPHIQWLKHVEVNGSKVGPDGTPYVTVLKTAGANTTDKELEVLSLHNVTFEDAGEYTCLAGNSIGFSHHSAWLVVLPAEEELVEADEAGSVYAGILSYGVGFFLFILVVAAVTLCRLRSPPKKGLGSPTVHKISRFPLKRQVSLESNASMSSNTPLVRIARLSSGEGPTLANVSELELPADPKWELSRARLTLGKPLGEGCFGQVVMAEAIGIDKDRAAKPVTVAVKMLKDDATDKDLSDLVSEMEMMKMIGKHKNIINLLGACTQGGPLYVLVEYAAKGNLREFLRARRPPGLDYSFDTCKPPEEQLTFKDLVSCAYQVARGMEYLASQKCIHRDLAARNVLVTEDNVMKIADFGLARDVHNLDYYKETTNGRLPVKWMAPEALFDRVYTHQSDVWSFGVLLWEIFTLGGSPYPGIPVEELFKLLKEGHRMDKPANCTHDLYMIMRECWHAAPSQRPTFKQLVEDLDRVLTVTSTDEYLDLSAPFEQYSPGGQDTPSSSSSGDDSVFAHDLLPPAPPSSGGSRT", "experiment": "Cell free kinase inhibition assay", "type": "biochemical"}, "[10]": {"tested_on": "human thyroid cancer cell lines", "experiment": "Antiproliferation assay, panel of 11 cell lines", "type": "cell-based", "settings": "9 out of the 11 cell lines, in vitro antiproliferative", "protocol": "The human DTC cell lines K1, FTC-133, FTC-236, FTC-238, and RO82-W-1 and the human thyroid follicular epithelial cell line Nthy-ori 3-1 were obtained from DS Pharma Biomedical Co., Ltd. (Osaka, Japan). The human MTC cell line TT was obtained from the American Type Culture Collection (Manassas, VA). The human ATC cell lines 8305C, 8505C, HTC/C3, KHM-5M, and TCO-1 were obtained from the Japanese Collection of Research Bioresources Cell Bank (Osaka, Japan). […]\nCells (1,000–3,000/well) were seeded and cultured in 96-well culture plates. […] Cell numbers were determined by using WST-8 (Dojindo, Kumamoto, Japan); 10 μL of WST-8 was added to each well, and absorbance was measured at a wavelength of 450 nm and compared with a reference measurement at 660 or 665 nm by using an MTP-500 microplate reader (Corona Electric, Ibaraki, Japan) or an EnVision Multilabel Reader (Perkin Elmer, Turku, Finland). […]"}, "[11]": {"molecular_target": "T7, PLK1 (Homo sapiens, UniProt P53350)", "T7 construct": "purchased Carna Biosciences, Inc. (Kobe, Japan)", "experiment": "Cell free kinase inhibition assay", "type": "biochemical"}, "[12]": {"molecular_target": "T8, FGFR3 (Homo sapiens, UniProt P22607)", "T8 construct": "purchased Carna Biosciences, Inc. (Kobe, Japan)", "T8 sequence (P22607 23-806)": "as the sequence (P22607 23-806 K650E) above, with E628K counted along it", "experiment": "Cell free kinase inhibition assay", "type": "biochemical"}, "[13]": {"molecular_target": "T9, EPHB3 (Homo sapiens, UniProt P54753)", "T9 construct": "purchased Carna Biosciences, Inc. (Kobe, Japan)", "T9 sequence (P54753 34-998)": "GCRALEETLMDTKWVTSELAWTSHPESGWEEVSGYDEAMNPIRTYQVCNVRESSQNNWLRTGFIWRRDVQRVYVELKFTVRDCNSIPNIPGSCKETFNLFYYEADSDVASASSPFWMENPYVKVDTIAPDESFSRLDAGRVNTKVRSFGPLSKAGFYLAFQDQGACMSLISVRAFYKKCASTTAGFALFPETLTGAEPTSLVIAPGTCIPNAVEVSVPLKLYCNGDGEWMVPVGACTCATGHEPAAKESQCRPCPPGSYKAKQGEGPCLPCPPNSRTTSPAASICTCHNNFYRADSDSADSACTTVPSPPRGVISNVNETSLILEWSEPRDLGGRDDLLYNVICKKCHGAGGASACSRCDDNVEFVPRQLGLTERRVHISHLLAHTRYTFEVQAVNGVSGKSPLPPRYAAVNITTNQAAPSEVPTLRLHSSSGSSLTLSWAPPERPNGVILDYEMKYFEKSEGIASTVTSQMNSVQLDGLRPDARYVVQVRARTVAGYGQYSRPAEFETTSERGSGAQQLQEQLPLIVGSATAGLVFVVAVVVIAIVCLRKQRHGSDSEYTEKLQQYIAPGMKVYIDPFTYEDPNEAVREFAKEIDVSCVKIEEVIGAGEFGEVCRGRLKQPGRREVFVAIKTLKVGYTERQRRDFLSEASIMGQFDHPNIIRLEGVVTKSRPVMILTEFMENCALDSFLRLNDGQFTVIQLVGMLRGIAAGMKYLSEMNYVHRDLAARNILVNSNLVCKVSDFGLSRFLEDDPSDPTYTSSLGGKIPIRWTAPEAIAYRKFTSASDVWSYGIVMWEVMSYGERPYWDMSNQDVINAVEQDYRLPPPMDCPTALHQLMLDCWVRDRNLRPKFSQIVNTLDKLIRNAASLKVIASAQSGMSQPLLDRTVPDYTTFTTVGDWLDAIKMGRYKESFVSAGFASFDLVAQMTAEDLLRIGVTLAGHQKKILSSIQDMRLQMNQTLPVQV", "experiment": "Cell free kinase inhibition assay", "type": "biochemical"}, "[14]": {"molecular_target": "T10, KIT(V654A) (Homo sapiens, UniProt P10721, V654A)", "T10 construct": "purchased Carna Biosciences, Inc. (Kobe, Japan)", "experiment": "Cell free kinase inhibition assay", "type": "biochemical"}, "[15]": {"molecular_target": "T11, EPHB2 (Homo sapiens, UniProt P29323)", "T11 construct": "purchased Carna Biosciences, Inc. (Kobe, Japan)", "experiment": "Cell free kinase inhibition assay", "type": "biochemical"}, "[16]": {"molecular_target": "T12, IGF1R (Homo sapiens, UniProt P08069)", "T12 construct": "purchased Carna Biosciences, Inc. (Kobe, Japan)", "experiment": "Cell free kinase inhibition assay", "type": "biochemical"}, "[17]": {"molecular_target": "T13, p70S6K (Homo sapiens, UniProt P23443)", "T13 construct": "purchased Carna Biosciences, Inc. (Kobe, Japan)", "experiment": "Cell free kinase inhibition assay", "type": "biochemical"}, "[18]": {"tested_on": "K1 cells", "experiment": "Antiproliferation assay (WST-8)", "type": "cell-based, human", "settings": "Homo sapiens, 72 h; K1 (DTC), antiproliferative, 3 days"}, "[19]": {"molecular_target": "T14, JAK2 (Homo sapiens, UniProt O60674)", "T14 construct": "purchased Carna Biosciences, Inc. (Kobe, Japan)", "experiment": "Cell free kinase inhibition assay", "type": "biochemical"}, "[20]": {"molecular_target": "T15, KIT(V560G) (Homo sapiens, UniProt P10721, V560G)", "T15 construct": "purchased Carna Biosciences, Inc. (Kobe, Japan)", "experiment": "Cell free kinase inhibition assay", "type": "biochemical"}, "[21]": {"tested_on": "FTC-236 cells", "experiment": "Antiproliferation assay (WST-8)", "type": "cell-based, human", "settings": "Homo sapiens, 72 h; FTC-236 (DTC), antiproliferative, 3 days; read-out: IC50"}, "[22]": {"molecular_target": "T16, CSK (Homo sapiens, UniProt P41240)", "T16 construct": "purchased Carna Biosciences, Inc. (Kobe, Japan)", "experiment": "Cell free kinase inhibition assay", "type": "biochemical"}, "[23]": {"molecular_target": "T17, FGFR2 (Homo sapiens, UniProt P21802)", "T17 construct": "purchased Carna Biosciences, Inc. (Kobe, Japan)", "T17 sequence (P21802 22-821)": "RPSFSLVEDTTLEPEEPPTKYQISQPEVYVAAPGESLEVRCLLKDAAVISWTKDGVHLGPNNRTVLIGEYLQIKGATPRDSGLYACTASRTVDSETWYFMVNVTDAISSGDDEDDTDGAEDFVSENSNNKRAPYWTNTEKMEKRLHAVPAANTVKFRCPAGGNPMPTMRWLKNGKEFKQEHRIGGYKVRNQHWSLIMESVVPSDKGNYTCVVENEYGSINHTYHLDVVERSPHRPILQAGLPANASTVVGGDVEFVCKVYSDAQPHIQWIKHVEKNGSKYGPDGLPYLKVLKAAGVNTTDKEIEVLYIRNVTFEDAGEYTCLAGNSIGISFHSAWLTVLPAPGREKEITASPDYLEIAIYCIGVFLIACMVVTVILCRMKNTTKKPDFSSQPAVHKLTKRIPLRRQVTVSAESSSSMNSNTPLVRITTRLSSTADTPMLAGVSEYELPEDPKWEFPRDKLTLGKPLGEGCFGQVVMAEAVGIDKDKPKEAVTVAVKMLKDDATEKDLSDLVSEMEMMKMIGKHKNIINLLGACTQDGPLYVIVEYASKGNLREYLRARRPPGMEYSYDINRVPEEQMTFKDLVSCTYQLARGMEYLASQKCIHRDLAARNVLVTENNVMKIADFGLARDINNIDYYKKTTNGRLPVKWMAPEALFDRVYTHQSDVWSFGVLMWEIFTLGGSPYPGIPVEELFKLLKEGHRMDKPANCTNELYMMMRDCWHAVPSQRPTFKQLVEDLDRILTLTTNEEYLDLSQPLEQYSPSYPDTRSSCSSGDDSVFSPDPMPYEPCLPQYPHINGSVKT", "experiment": "Cell free kinase inhibition assay", "type": "biochemical"}, "[24]": {"molecular_target": "T18, PDGFRα(V561D) (Homo sapiens, UniProt P16234, V561D)", "T18 construct": "purchased Carna Biosciences, Inc. (Kobe, Japan)", "T18 sequence (P16234 24-1089 V561D)": "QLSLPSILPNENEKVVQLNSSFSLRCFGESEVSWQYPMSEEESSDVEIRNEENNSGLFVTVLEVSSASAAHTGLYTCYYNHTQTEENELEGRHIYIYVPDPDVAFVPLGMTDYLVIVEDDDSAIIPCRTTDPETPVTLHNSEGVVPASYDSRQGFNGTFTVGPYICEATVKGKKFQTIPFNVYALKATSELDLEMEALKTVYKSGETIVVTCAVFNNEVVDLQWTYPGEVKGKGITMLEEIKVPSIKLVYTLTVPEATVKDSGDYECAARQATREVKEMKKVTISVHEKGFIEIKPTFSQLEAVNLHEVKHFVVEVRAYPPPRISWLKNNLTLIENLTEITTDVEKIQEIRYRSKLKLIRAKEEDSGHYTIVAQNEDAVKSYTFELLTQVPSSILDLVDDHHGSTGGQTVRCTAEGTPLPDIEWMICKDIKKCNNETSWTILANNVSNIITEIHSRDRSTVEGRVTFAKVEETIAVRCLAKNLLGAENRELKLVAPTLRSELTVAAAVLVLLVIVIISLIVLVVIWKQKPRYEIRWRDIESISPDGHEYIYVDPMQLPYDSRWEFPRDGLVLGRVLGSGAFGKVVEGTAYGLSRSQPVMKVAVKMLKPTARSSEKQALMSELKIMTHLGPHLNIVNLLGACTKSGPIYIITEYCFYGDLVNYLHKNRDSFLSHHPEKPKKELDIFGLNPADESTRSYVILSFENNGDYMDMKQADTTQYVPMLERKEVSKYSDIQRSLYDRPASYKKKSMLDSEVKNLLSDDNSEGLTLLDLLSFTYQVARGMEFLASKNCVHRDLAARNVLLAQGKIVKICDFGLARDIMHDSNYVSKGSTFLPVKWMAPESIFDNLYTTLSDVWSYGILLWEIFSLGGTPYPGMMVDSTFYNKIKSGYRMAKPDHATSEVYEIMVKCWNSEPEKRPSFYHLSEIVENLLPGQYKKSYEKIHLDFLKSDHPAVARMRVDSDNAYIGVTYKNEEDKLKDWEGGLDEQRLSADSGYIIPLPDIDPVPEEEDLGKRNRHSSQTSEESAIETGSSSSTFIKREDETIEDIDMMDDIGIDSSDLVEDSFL", "experiment": "Cell free kinase inhibition assay", "type": "biochemical"}, "[25]": {"molecular_target": "T19, PDGFRα(T674I) (Homo sapiens, UniProt P16234, T674I)", "T19 construct": "purchased Carna Biosciences, Inc. (Kobe, Japan)", "T19 sequence (P16234 24-1089 T674I)": "as the sequence (P16234 24-1089 V561D) above, with D538V, T651I counted along it", "experiment": "Cell free kinase inhibition assay", "type": "biochemical"}, "[26]": {"molecular_target": "T20, MLK1 (Homo sapiens, UniProt P80192)", "T20 construct": "purchased Carna Biosciences, Inc. (Kobe, Japan)", "T20 sequence (P80192 whole entry)": "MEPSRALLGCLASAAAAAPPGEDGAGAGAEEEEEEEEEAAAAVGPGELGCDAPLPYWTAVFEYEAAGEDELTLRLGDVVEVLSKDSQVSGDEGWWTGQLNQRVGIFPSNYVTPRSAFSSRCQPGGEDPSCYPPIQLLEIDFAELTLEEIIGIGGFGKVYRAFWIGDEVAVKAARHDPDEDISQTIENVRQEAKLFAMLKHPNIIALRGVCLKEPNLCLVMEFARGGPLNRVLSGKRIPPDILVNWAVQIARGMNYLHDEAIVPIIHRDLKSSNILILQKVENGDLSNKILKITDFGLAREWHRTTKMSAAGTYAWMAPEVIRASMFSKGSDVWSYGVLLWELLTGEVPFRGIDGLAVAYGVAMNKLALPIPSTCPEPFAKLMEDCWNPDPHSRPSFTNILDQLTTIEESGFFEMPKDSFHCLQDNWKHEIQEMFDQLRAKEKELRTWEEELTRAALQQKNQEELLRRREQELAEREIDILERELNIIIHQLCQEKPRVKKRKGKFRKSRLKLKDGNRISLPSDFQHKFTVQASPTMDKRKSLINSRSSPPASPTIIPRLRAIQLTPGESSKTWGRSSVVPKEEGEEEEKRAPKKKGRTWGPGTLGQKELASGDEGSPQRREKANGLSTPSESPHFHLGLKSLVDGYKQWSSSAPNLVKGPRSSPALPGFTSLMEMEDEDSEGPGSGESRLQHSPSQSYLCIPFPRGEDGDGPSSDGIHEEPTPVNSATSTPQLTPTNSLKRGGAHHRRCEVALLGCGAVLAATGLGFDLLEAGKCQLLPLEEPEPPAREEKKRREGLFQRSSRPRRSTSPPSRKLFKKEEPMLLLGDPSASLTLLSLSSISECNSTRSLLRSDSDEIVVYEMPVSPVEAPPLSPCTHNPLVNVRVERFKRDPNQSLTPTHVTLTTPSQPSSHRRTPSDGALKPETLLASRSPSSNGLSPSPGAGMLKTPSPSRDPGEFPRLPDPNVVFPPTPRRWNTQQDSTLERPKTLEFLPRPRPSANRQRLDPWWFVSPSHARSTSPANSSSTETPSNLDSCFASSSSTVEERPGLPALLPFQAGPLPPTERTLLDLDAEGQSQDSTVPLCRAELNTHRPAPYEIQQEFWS", "experiment": "Cell free kinase inhibition assay", "type": "biochemical"}, "[27]": {"molecular_target": "T21, CDK4 (Homo sapiens, UniProt P11802)", "T21 construct": "purchased Carna Biosciences, Inc. (Kobe, Japan)", "experiment": "Cell free kinase inhibition assay", "type": "biochemical"}}}
{"smiles": "COc1cc2nccc(Oc3ccc(NC(=O)NC4CC4)c(Cl)c3)c2cc1C(N)=O", "note": "[Lenvatinib, Lenvatinib mesilate]", "values": [{"measurement": "IC50", "setting": "[1]", "result": 26, "unit": "µM"}, {"measurement": "IC50", "setting": "[2]", "result": "> 10", "unit": "µM"}, {"measurement": "IC50", "setting": "[3]", "result": "< 0.1", "unit": "µM"}, {"measurement": "IC50", "setting": "[4]", "result": 0.061, "unit": "µM"}, {"measurement": "IC50", "setting": "[5]", "result": "> 10", "unit": "µM"}, {"measurement": "IC50", "setting": "[6]", "result": 0.17, "unit": "µM"}, {"measurement": "IC50", "setting": "[7]", "result": "> 10", "unit": "µM"}, {"measurement": "IC50", "setting": "[8]", "result": 24, "unit": "µM"}, {"measurement": "IC50", "setting": "[9]", "result": 0.11, "unit": "µM"}, {"measurement": "IC50", "setting": "[10]", "result": "> 10", "unit": "µM"}, {"measurement": "IC50", "setting": "[11]", "result": "> 10", "unit": "µM"}, {"measurement": "IC50", "setting": "[12]", "result": 0.052, "unit": "µM"}, {"measurement": "IC50", "setting": "[13]", "result": "> 10", "unit": "µM"}, {"measurement": "IC50", "setting": "[14]", "result": 0.52, "unit": "µM"}, {"measurement": "IC50", "setting": "[15]", "result": 0.66, "unit": "µM"}, {"measurement": "IC50", "setting": "[16]", "result": "> 10", "unit": "µM"}, {"measurement": "IC50", "setting": "[17]", "result": "> 10", "unit": "µM"}, {"measurement": "IC50", "setting": "[18]", "result": 22, "unit": "µM"}, {"measurement": "IC50", "setting": "[19]", "result": "> 10", "unit": "µM"}, {"measurement": "IC50", "setting": "[20]", "result": 0.00074, "unit": "µM"}, {"measurement": "IC50", "setting": "[21]", "result": 17, "unit": "µM"}, {"measurement": "IC50", "setting": "[22]", "result": 2.6, "unit": "µM"}, {"measurement": "IC50", "setting": "[23]", "result": 0.027, "unit": "µM"}, {"measurement": "IC50", "setting": "[24]", "result": 0.025, "unit": "µM"}, {"measurement": "IC50", "setting": "[25]", "result": 0.63, "unit": "µM"}, {"measurement": "IC50", "setting": "[26]", "result": "> 10", "unit": "µM"}, {"measurement": "IC50", "setting": "[27]", "result": "> 10", "unit": "µM"}]}
